Patent publication US20040115790A1, “Method for production of secreted proteins in fungi” (priority 2001, published 2004)

Experiments:
T. reesei Rut-C30 [1] = test: Northern analysis of transcript levels in treated T. reesei cultures; conditions: for Expression of the short form of hac1 mRNA: normalised with total hac1 signal
Description: T. reesei strain Rut-C30 (Montenecourt & Eveleigh, 1979) was cultivated on minimal medium ((H4)2SO4 7.6 g l^−1, KH2PO4 15.0 g l^−1, MgSO4.7H2O 0.5 g l^−1, CaCl2.H2O 0.2 g l^−1, CoCl2 3.7 mg l^−1, FeSO4.7H2O 5 mg l^−1, ZnSO4.7H2O 1.4 mg l^−1, MnSO4.7H2O 1.6 mg l^−1, pH adjusted to 5.2 with KOH) that contained lactose 20 g l^−1 as a carbon source. Spore suspension with 2×10^7 spores (stored in −80° C. in 20% glycerol) was inoculated into 200 ml of the medium, grown in shake flasks at 28° C. with shaking at 210 rpm. After 4 days of cultivation the cultures were diluted 1/10 into fresh medium, grown further for 24 h, and treated either with 10 mM dithiothreitol (DTT), 50 μg/ml brefeldin A (BFA) or 5 μM Ca^2+-ionophore A23187. A corresponding volume of the solvent of the stock solution was added into the untreated control cultures (0.2% and 0.5% DMSO for the control cultures for A23187 and BFA treatment, respectively, and double distilled water for the control for DTT treatment).
For the Northern analysis mycelial samples were collected from cultures treated with DTT, BFA or A23187 and from the untreated control cultures after 0, 15, 30, 60, 90, 120, 240 and 360 minutes of the treatment. The first sample (the time point 0 min was withdrawn immediately before addition of DTT, BFA or A23187). The mycelium was filtered, washed with equal volume of 0.7% NaCl, frozen immediately in liquid nitrogen, and stored at −80° C. Total RNA was isolated using the Trizol™ Reagent (Gibco BRL) essentially according to manufacturer's instructions. Northern blotting and hybridisation was carried out according to standard procedures (Sambrook et al). Full-length cDNA of the genes were used as probes.
Northern analysis of the samples collected during the treatment with A23187, DTT or BFA was carried out to study the effect of the treatments at transcriptional level.

T. reesei Rut-C30 [2] = test: Synthesis and secretion of labelled CBHI (2D gel, phosphorimager) in treated T. reesei cultures; format: cell-based, Trichoderma reesei; conditions: for CBHI synthesis rate / CBHI secretion rate: percentage of non-treated control cultures; for CBHI secretion rate: production into culture medium; for Minimum secretion time of CBHI: untreated cells 11 min
Description: Proteins were metabolically labelled with ^35S-methionine using the methods described in (Pakula et al. 2000). The preparation of the samples and analysis of the labelled proteins were carried out essentially as in (Pakula et al. 2000). The labelling experiment was started after 10 min of addition of DTT or A23187 or after 15 min of addition of BFA. 1 mCi of [^35S]-methionine (Amersham S J 1015, in vivo cell labelling grade, 1000 Ci mmol^−1, 10 μCi μl^−1) was added to a 50 ml aliquot of the cultivation. Untreated cultures were labelled in parallel and in a similar manner. Samples of 2 ml were collected during a time course. Labelled total protein in cell extracts and culture supernatant was measured using scintillation counting of TCA insoluble material in the samples, and labelled specific proteins (e.g. CBHI) were analysed using 2D gel electrophoresis, and the proteins were quantified using a phosphorimager (Molecular Dynamics). The rates of protein synthesis and secretion, and the average synthesis time and minimum secretion time were determined as described in Pakula et al. 2000.
The effect of the treatments on the synthesis of extracellular proteins, specifically, and on their transport was studied using the major cellulase produced by the fungus, cellobiohydrolase I (CBHI), as a model protein. […] The effect of the treatment with the ionophore A23187 on protein transport was less pronounced. Formation of the full pI pattern of CBHI was delayed by 15-20 minutes compared to the control cells, and CBHI with full pattern of the pI forms was secreted into the culture medium but with a delay.
The labelled CBHI from samples of cell extract and culture supernatant at different time points of the labelling experiment was analysed in 2D gels and quantified using a phosphorimager (Molecular Dynamics). Parameters, such as the synthesis and secretion rate of CBHI (the amount of labelled protein produced per time unit) as well as the average synthesis time and the minimum secretion time of CBHI, were determined (for the method see Pakula et al. 2000). The quantification of the labelled CBHI during the labelling experiment is shown in FIG. 3, and the deduced parameters describing the synthesis and secretion of CBHI in these conditions are summarised in the Table 1. The average synthesis time of full-length CBHI was not affected in the DTT and BFA treated cultures, being in accordance with the result that total protein synthesis is not affected by these treatments (see above).

A. niger AB4.1 = test: Northern analysis of transcript levels in DTT treated A. niger cultures; format: cell-based, Aspergillus niger; conditions: 20 mM DTT
Description: The Aspergillus niger strains used in the experiments were AB4.1 (van Hartingsveldt et al., 1987) and AS1.1 (Ngiam et al., 2000). Spores resuspended in 0.1% Tween 20 (Sigma, UK) were used to inoculate liquid cultures to a final density of 1×10^5 spores per ml of medium. The strains were maintained on potato dextrose agar slopes (Difco, USA) with a supplement of 10 mM uridine for A. niger AB4.1. Slopes were grown at 30° C. until they had sporulated and made fresh for each experiment. ACMS/N/P medium (Archer et al., 1990) was used for all the experiments involving liquid culture. A. niger AB4.1 cultures were again supplemented with 10 mM uridine. Cultures were grown in 100 ml aliquots of medium in 250 ml conical flasks at 25° C. and 150 rpm. In the DTT stress experiments, AB4.1 cultures were grown for 44 hours before addition of 1 ml of 2M DTT solution to give a final concentration of 20 mM. […]
Total RNA was extracted from 100 mg of freeze dried, ground mycelia using the RNeasy Plant Mini Kit (Qiagen, UK) according to the manufacturer's instructions. RNA was quantified by reading absorbances at 230, 260 and 280 nm on a Uvikon 850 spectrophotometer (Kontron Instruments, UK). Ratios of over 2.0 for the 260 nm:280 nm readings were accepted as being indicative of good quality RNA. RNA quality was also assessed by running samples on 7% formaldehyde gels (Sambrook et al., 1989). […]

T. reesei Rut-C30 [3] = test: Metabolic labelling (35S-methionine): total protein synthesis and secretion in treated T. reesei cultures; format: cell-based, Trichoderma reesei; conditions: percentage of non-treated control cultures, 5 μM A23187, 50 μg/ml BFA or 10 mM DTT; for Total protein secretion rate: TCA insoluble radioactivity in culture supernatant
[4] = 5 μM A23187, 50 μg/ml BFA or 10 mM DTT

O[C@H](CS)[C@H](O)CS (racemic) [DTT, dithiothreitol]
Expression level of sar1 and ypt1 (T. reesei Rut-C30 [1]; 10 mM DTT): not affected
Transcript level of xyn1 and hfb2 (T. reesei Rut-C30 [1]; 10 mM DTT): reduced
Expression of the short form of hac1 mRNA (T. reesei Rut-C30 [1]): expression of the shortened, actively translated form
CBHI synthesis rate (T. reesei Rut-C30 [2]; [4]): 4-24%
CBHI secretion rate (T. reesei Rut-C30 [2]; [4]): no production of labelled CBHI into the culture medium was detected
pdiA and bipA mRNA response (A. niger AB4.1): rapid response
Levels of pepA mRNA (A. niger AB4.1; control cultures show an increase): no significant increase
Total protein secretion rate (T. reesei Rut-C30 [3]): 5%

CNc1ccc2oc(C[C@H]3O[C@@]4(CC[C@H]3C)O[C@H]([C@H](C)C(=O)c3ccc[nH]3)[C@H](C)C[C@H]4C)nc2c1C(=O)O [A23187]
Expression of the short form of hac1 mRNA (T. reesei Rut-C30 [1]): transient and rather weak expression
Delay of formation of the full pI pattern of CBHI compared to the control cells (T. reesei Rut-C30 [2]; 5 μM A23187): 15-20 minutes
Increase of minimum secretion time of CBHI compared to the control cultures (T. reesei Rut-C30 [2]; 5 μM A23187): 10 min
Prolongation of synthesis time of CBHI compared to the control cultures (T. reesei Rut-C30 [2]; 5 μM A23187): 3 to 4 min
CBHI synthesis rate (T. reesei Rut-C30 [2]; [4]): 26%
CBHI secretion rate (T. reesei Rut-C30 [2]; [4]): 27%
Average time of CBHI synthesis (T. reesei Rut-C30 [2]; untreated cells 5.7 min, 5 μM A23187, 50 μg/ml BFA or 10 mM DTT): 9 min
Minimum secretion time of CBHI (T. reesei Rut-C30 [2]; [4]): 21 min
Total protein synthesis rate (T. reesei Rut-C30 [3]; TCA insoluble radioactivity in cell extracts): 51%
Total protein secretion rate (T. reesei Rut-C30 [3]): 23%

C[C@H]1CCC/C=C/[C@@H]2C[C@H](O)C[C@H]2[C@H](O)/C=C/C(=O)O1 [BFA, brefeldin A]
Expression of the short form of hac1 mRNA (T. reesei Rut-C30 [1]): expression of the shortened, actively translated form
CBHI synthesis rate (T. reesei Rut-C30 [2]; [4]): 52%
CBHI secretion rate (T. reesei Rut-C30 [2]; [4]): 4%
Minimum secretion time of CBHI (T. reesei Rut-C30 [2]; [4]): 69 min
Total protein secretion rate (T. reesei Rut-C30 [3]): 5%
